# Assay results as given in ChEMBL document CHEMBL3885881, “DrugMatrix”.
# Species on record: Rattus norvegicus
# Assay: DrugMatrix - Regimen: Daily Repeat
# Assay type: toxicity, organism-based, Sprague-Dawley
# Set-up: regimen Daily Repeat, gender Male, age 6-8 weeks
# Conditions: in vivo, po, route oral GAVAGE, […]; for ABSOLUTE BASOPHIL / ABSOLUTE EOSINOPHIL / ABSOLUTE LYMPHOCYTE / ABSOLUTE MONOCYTE / ABSOLUTE SEGMENTED NEUTROPHIL / BASOPHIL / EOSINOPHIL / ERYTHROCYTE COUNT / HEMATOCRIT / HEMOGLOBIN / LEUKOCYTE COUNT / LYMPHOCYTE / MEAN CORPUSCULAR HEMOGLOBIN / MEAN CORPUSCULAR HEMOGLOBIN CONCENTRATION / MEAN CORPUSCULAR VOLUME / MONOCYTE / NEUTROPHIL / NUCLEATED RED BLOOD CELLS / PLATELET COUNT: tissue Blood; for ALANINE AMINOTRANSFERASE / ALBUMIN / ALKALINE PHOSPHATASE / ASPARTATE AMINOTRANSFERASE / BLOOD UREA NITROGEN / CARBON DIOXIDE / CHLORIDE / CHOLESTEROL / CREATINE PHOSPHOKINASE / CREATININE / GLUCOSE / LACTATE DEHYDROGENASE / LIPASE / PHOSPHORUS / POTASSIUM / SODIUM / TOTAL BILIRUBIN / TOTAL PROTEIN / URIC ACID: tissue Plasma
# [1] = 40 mg/kg, 72 h, dose level Low, time 3 day
# [2] = 40 mg/kg, 120 h, dose level Low, time 5 day
# [3] = 444 mg/kg, 72 h, dose level High, time 3 day
# [4] = 444 mg/kg, 120 h, dose level High, time 5 day
smiles,measurement,setting,value
COC(=O)c1ccccc1O [METHYL SALICYLATE],ABSOLUTE BASOPHIL,[1],0 CELLS/uL
same,ABSOLUTE EOSINOPHIL,[1],96.67 CELLS/uL
same,ABSOLUTE LYMPHOCYTE,[1],12979.67 CELLS/uL
same,ABSOLUTE MONOCYTE,[1],290.67 CELLS/uL
same,ABSOLUTE SEGMENTED NEUTROPHIL,[1],1366.33 CELLS/uL
same,BASOPHIL,[1],0%
same,EOSINOPHIL,[1],0.67%
same,ERYTHROCYTE COUNT,[1],5.47 x10E6/uL
same,HEMATOCRIT,[1],34.27%
same,HEMOGLOBIN,[1],13.3 G/DL
same,LEUKOCYTE COUNT,[1],14.73 x10E3/uL
same,LYMPHOCYTE,[1],88%
same,MEAN CORPUSCULAR HEMOGLOBIN,[1],24.33 pg
same,MEAN CORPUSCULAR HEMOGLOBIN CONCENTRATION,[1],38.83 G/DL
same,MEAN CORPUSCULAR VOLUME,[1],62.67 fL
same,MONOCYTE,[1],2%
same,NEUTROPHIL,[1],9.33%
same,NUCLEATED RED BLOOD CELLS,[1],0 /100WBC
same,PLATELET COUNT,[1],1233.67 x10E3/uL
same,ALANINE AMINOTRANSFERASE,[1],69.33 u/L
same,ALBUMIN,[1],3.93 G/DL
same,ALKALINE PHOSPHATASE,[1],411 u/L
same,ASPARTATE AMINOTRANSFERASE,[1],90 u/L
same,BLOOD UREA NITROGEN,[1],10.67 mg/dL
same,CARBON DIOXIDE,[1],25 mmol/L
same,CHLORIDE,[1],101 MEQ/L
same,CHOLESTEROL,[1],68 mg/dL
same,CREATINE PHOSPHOKINASE,[1],276 u/L
same,CREATININE,[1],0.17 mg/dL
same,GLUCOSE,[1],149.67 mg/dL
same,LACTATE DEHYDROGENASE,[1],146.67 u/L
same,LIPASE,[1],12 u/L
same,PHOSPHORUS,[1],11.03 mg/dL
same,POTASSIUM,[1],6.55 MEQ/L
same,SODIUM,[1],142.03 MEQ/L
same,TOTAL BILIRUBIN,[1],0.2 mg/dL
same,TOTAL PROTEIN,[1],5.6 G/DL
same,URIC ACID,[1],1.37 mg/dL
same,ABSOLUTE BASOPHIL,[2],0 CELLS/uL
same,ABSOLUTE EOSINOPHIL,[2],46 CELLS/uL
same,ABSOLUTE LYMPHOCYTE,[2],12546.67 CELLS/uL
same,ABSOLUTE MONOCYTE,[2],258.67 CELLS/uL
same,ABSOLUTE SEGMENTED NEUTROPHIL,[2],1848.67 CELLS/uL
same,BASOPHIL,[2],0%
same,EOSINOPHIL,[2],0.33%
same,ERYTHROCYTE COUNT,[2],5.18 x10E6/uL
same,HEMATOCRIT,[2],34.3%
same,HEMOGLOBIN,[2],13.77 G/DL
same,LEUKOCYTE COUNT,[2],14.7 x10E3/uL
same,LYMPHOCYTE,[2],85.67%
same,MEAN CORPUSCULAR HEMOGLOBIN,[2],26.7 pg
same,MEAN CORPUSCULAR HEMOGLOBIN CONCENTRATION,[2],40.13 G/DL
same,MEAN CORPUSCULAR VOLUME,[2],66.53 fL
same,MONOCYTE,[2],1.67%
same,NEUTROPHIL,[2],12.33%
same,NUCLEATED RED BLOOD CELLS,[2],0 /100WBC
same,PLATELET COUNT,[2],1368.67 x10E3/uL
same,ALANINE AMINOTRANSFERASE,[2],59 u/L
same,ALBUMIN,[2],4.17 G/DL
same,ALKALINE PHOSPHATASE,[2],468.33 u/L
same,ASPARTATE AMINOTRANSFERASE,[2],97.67 u/L
same,BLOOD UREA NITROGEN,[2],11 mg/dL
same,CARBON DIOXIDE,[2],34.67 mmol/L
same,CHLORIDE,[2],100.67 MEQ/L
same,CHOLESTEROL,[2],60.33 mg/dL
same,CREATINE PHOSPHOKINASE,[2],364.67 u/L
same,CREATININE,[2],0.16 mg/dL
same,GLUCOSE,[2],144 mg/dL
same,LACTATE DEHYDROGENASE,[2],490.67 u/L
same,LIPASE,[2],11 u/L
same,PHOSPHORUS,[2],10.47 mg/dL
same,POTASSIUM,[2],6.4 MEQ/L
same,SODIUM,[2],143.33 MEQ/L
same,TOTAL BILIRUBIN,[2],0.2 mg/dL
same,TOTAL PROTEIN,[2],5.73 G/DL
same,URIC ACID,[2],1.43 mg/dL
same,ABSOLUTE BASOPHIL,[3],0 CELLS/uL
same,ABSOLUTE EOSINOPHIL,[3],0 CELLS/uL
same,ABSOLUTE LYMPHOCYTE,[3],15083 CELLS/uL
same,ABSOLUTE MONOCYTE,[3],294 CELLS/uL
same,ABSOLUTE SEGMENTED NEUTROPHIL,[3],1723 CELLS/uL
same,BASOPHIL,[3],0%
same,EOSINOPHIL,[3],0%
same,ERYTHROCYTE COUNT,[3],6.27 x10E6/uL
same,HEMATOCRIT,[3],39.33%
same,HEMOGLOBIN,[3],15.27 G/DL
same,LEUKOCYTE COUNT,[3],17.1 x10E3/uL
same,LYMPHOCYTE,[3],88.33%
same,MEAN CORPUSCULAR HEMOGLOBIN,[3],24.37 pg
same,MEAN CORPUSCULAR HEMOGLOBIN CONCENTRATION,[3],38.83 G/DL
same,MEAN CORPUSCULAR VOLUME,[3],62.8 fL
same,MONOCYTE,[3],1.67%
same,NEUTROPHIL,[3],10%
same,NUCLEATED RED BLOOD CELLS,[3],0 /100WBC
same,PLATELET COUNT,[3],1017 x10E3/uL
same,ALANINE AMINOTRANSFERASE,[3],109 u/L
same,ALBUMIN,[3],4.4 G/DL
same,ALKALINE PHOSPHATASE,[3],443.33 u/L
same,ASPARTATE AMINOTRANSFERASE,[3],121 u/L
same,BLOOD UREA NITROGEN,[3],11.33 mg/dL
same,CARBON DIOXIDE,[3],27.67 mmol/L
same,CHLORIDE,[3],99.33 MEQ/L
same,CHOLESTEROL,[3],62.33 mg/dL
same,CREATINE PHOSPHOKINASE,[3],782 u/L
same,CREATININE,[3],0.19 mg/dL
same,GLUCOSE,[3],148.33 mg/dL
same,LACTATE DEHYDROGENASE,[3],151.33 u/L
same,LIPASE,[3],11.67 u/L
same,PHOSPHORUS,[3],13.93 mg/dL
same,POTASSIUM,[3],5.57 MEQ/L
same,SODIUM,[3],143.77 MEQ/L
same,TOTAL BILIRUBIN,[3],0.2 mg/dL
same,TOTAL PROTEIN,[3],5.73 G/DL
same,URIC ACID,[3],1 mg/dL
same,ABSOLUTE BASOPHIL,[4],0 CELLS/uL
same,ABSOLUTE EOSINOPHIL,[4],54.67 CELLS/uL
same,ABSOLUTE LYMPHOCYTE,[4],13302.33 CELLS/uL
same,ABSOLUTE MONOCYTE,[4],273 CELLS/uL
same,ABSOLUTE SEGMENTED NEUTROPHIL,[4],1603.33 CELLS/uL
same,BASOPHIL,[4],0%
same,EOSINOPHIL,[4],0.33%
same,ERYTHROCYTE COUNT,[4],6.16 x10E6/uL
same,HEMATOCRIT,[4],38.17%
same,HEMOGLOBIN,[4],14.63 G/DL
same,LEUKOCYTE COUNT,[4],15.23 x10E3/uL
same,LYMPHOCYTE,[4],87.67%
same,MEAN CORPUSCULAR HEMOGLOBIN,[4],23.73 pg
same,MEAN CORPUSCULAR HEMOGLOBIN CONCENTRATION,[4],38.4 G/DL
same,MEAN CORPUSCULAR VOLUME,[4],61.93 fL
same,MONOCYTE,[4],2%
same,NEUTROPHIL,[4],10%
same,NUCLEATED RED BLOOD CELLS,[4],0.33 /100WBC
same,PLATELET COUNT,[4],914.67 x10E3/uL
same,ALANINE AMINOTRANSFERASE,[4],125.67 u/L
same,ALBUMIN,[4],4.53 G/DL
same,ALKALINE PHOSPHATASE,[4],515 u/L
same,ASPARTATE AMINOTRANSFERASE,[4],127.67 u/L
same,BLOOD UREA NITROGEN,[4],18.67 mg/dL
same,CARBON DIOXIDE,[4],29 mmol/L
same,CHLORIDE,[4],103 MEQ/L
same,CHOLESTEROL,[4],65.33 mg/dL
same,CREATINE PHOSPHOKINASE,[4],548 u/L
same,CREATININE,[4],0.23 mg/dL
same,GLUCOSE,[4],140.67 mg/dL
same,LACTATE DEHYDROGENASE,[4],324.33 u/L
same,LIPASE,[4],11 u/L
same,PHOSPHORUS,[4],13.1 mg/dL
same,POTASSIUM,[4],5.71 MEQ/L
same,SODIUM,[4],146.3 MEQ/L
same,TOTAL BILIRUBIN,[4],0.27 mg/dL
same,TOTAL PROTEIN,[4],5.97 G/DL
same,URIC ACID,[4],0.9 mg/dL
